Laboratory results taken from patent publication US20260109707A1, “HETEROBIFUNCTIONAL COMPOUNDS AND METHODS OF TREATING DISEASE” (Halda Therapeutics OpCo. Inc., priority 2022, published 2026).
Read-outs that look alike come from different tables or passages of the source.

Assays:
[1] = test system: T-Rex 293 cell line SC3 cells having increased expression of androgen receptor protein due to exposure to doxycycline; assay: Cellular growth inhibition assay, T-Rex 293 SC3 cells with doxycycline (CellTiter-Glo, 72 hours); format: cell-based; conditions: T-Rex 293 SC3 cells with increased androgen receptor expression due to doxycycline (10 ng/mL)
How it was run: (§1)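 Doxycycline (10 ng/mL) was either included or omitted to toggle wild-type androgen receptor expression in SC3 cells, a T-Rex 293 clone, grown in stripped-serum, phenol red-free medium. After 72 hours with compound, viable cells were quantified by CellTiter-Glo 2.0.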

[2] = test system: T-Rex 293 cell line SC3 cells lacking increased expression of androgen receptor protein; assay: Cellular growth inhibition assay, T-Rex 293 SC3 cells without doxycycline (CellTiter-Glo, 72 hours); format: cell-based; conditions: T-Rex 293 cell line SC3 cells not exposed to doxycycline (lacking increased androgen receptor expression)
How it was run: as §1

VCaP cells = assay: Cellular growth inhibition assay for VCaP cells (CellTiter-Glo, 72 hours); format: cell-based, human
How it was run: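 Luminescent viability signal after 72 h of compound exposure gave GI50 values by four-parameter nonlinear regression. Compounds were added in 0.5% DMSO to cells plated 24 h earlier at 5000/well in DMEM containing 10% FBS.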

T47D cells = assay: Cellular growth inhibition assay for T47D cells (CellTiter-Glo, 72 hours); format: cell-based, human; conditions: 72 hours treatment
How it was run: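 Cells are plated at 3000/well and allowed 24 h before treatment. Test compound in medium containing 0.5% DMSO is then added, with DMSO-only wells as negative control, and plates are incubated 72 h at 37 °C. ATP luminescence (CellTiter-Glo 2.0) is then fitted to four parameters to derive GI50.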

| SMILES | GI50 ([1]; 72 h) [nM] | GI50 ([2]; 72 h) [nM] | GI50 (VCaP cells; Homo sapiens, VCaP, 72 h) [nM] | GI50 (T47D cells; Homo sapiens, T47D, 72 h) [nM] | GI50 [1] [nM] | GI50 [2] [nM] | GI50 (VCaP cells) [nM] | GI50 (T47D cells) [nM] |
| --- | --- | --- | --- | --- | --- | --- | --- | --- |
| Cc1sc2c(c1C)C(c1ccc(CN(C)C(=O)[C@@H]3CC[C@@H](c4ccc(C(=O)N[C@H]5CC[C@H](Oc6ccc(C#N)c(Cl)c6)CC5)nn4)C3)cc1)=N[C@@H](Cc1ncco1)c1nnc(C)n1-2 [I-316] | < 500 | > 3000 | < 500 | 1500 to 3000 |  |  |  |  |
| Cc1sc2c(c1C)C(c1ccc(CC3CC4(CCN(c5ccc(C(=O)N[C@H]6CC[C@H](Oc7ccc(C#N)c(Cl)c7)CC6)nn5)CC4)C3)cc1)=N[C@H](Cc1ncco1)c1nnc(C)n1-2 [I-111] | < 500 | > 3000 | < 500 | > 3000 |  |  |  |  |
| Cc1sc2c(c1C)C(c1ccc([C@H]3C[C@@H](C4CC5(CCN(c6ccc(C(=O)N[C@H]7CC[C@H](Oc8ccc(C#N)c(Cl)c8)CC7)nn6)CC5)C4)C3)cc1)=N[C@@H](Cc1ncco1)c1nnc(C)n1-2 [I-380] | > 3000 | > 3000 | > 3000 | > 3000 |  |  |  |  |
| Cc1sc2c(c1C)C(c1ccc(C[C@H]3C[C@]4(CN(c5ccc(C(=O)N[C@H]6CC[C@H](Oc7ccc(C#N)c(Cl)c7)CC6)nn5)CCO4)C3)cc1)=N[C@@H](Cc1ncco1)c1nnc(C)n1-2 [I-211] | < 500 | < 500 | < 500 | < 500 |  |  |  |  |
| Cc1sc2c(c1C)C(c1ccc(C[C@H]3CCCN(c4ccc(C(=O)N[C@H]5CC[C@H](Oc6ccc(C#N)c(Cl)c6)CC5)nn4)C3)cc1)=N[C@@H](Cc1ncco1)c1nnc(C)n1-2 [I-253] | < 500 | < 500 | < 500 | < 500 |  |  |  |  |
| Cc1sc2c(c1C)C(c1ccc(CCC[C@@H]3CCCN(c4ccc(C(=O)N[C@H]5CC[C@H](Oc6ccc(C#N)c(Cl)c6)CC5)nn4)C3)cc1)=N[C@@H](Cc1ncco1)c1nnc(C)n1-2 [I-276] | < 500 | < 500 | < 500 | < 500 |  |  |  |  |
| Cc1sc2c(c1C)C(c1ccc(C3CC3C3CC4(CCN(c5ccc(C(=O)N[C@H]6CC[C@H](Oc7ccc(C#N)c(Cl)c7)CC6)nn5)CC4)C3)cc1)=N[C@@H](Cc1ncco1)c1nnc(C)n1-2 (some centres unmarked) [I-200] | < 500 | < 500 | < 500 | < 500 |  |  |  |  |
| Cc1sc2c(c1C)C(c1ccc(C(=O)N(C)CCCc3ccc(C(=O)N[C@H]4CC[C@H](Oc5ccc(C#N)c(Cl)c5)CC4)nn3)cc1)=N[C@@H](Cc1ncco1)c1nnc(C)n1-2 [I-320] | > 3000 | > 3000 | > 3000 | > 3000 |  |  |  |  |
| Cc1sc2c(c1C)C(c1ccc(N3CCC4(CCCN(c5ccc(C(=O)N[C@H]6CC[C@H](Oc7ccc(C#N)c(Cl)c7)CC6)nn5)C4)CC3)cc1)=NCc1nnc(C)n1-2 [I-422] | < 500 | > 3000 | < 500 | 500 to 1500 |  |  |  |  |
| Cc1sc2c(c1C)C(c1ccc(C(=O)N3CCC(Cc4ccc(C(=O)N[C@H]5CC[C@H](Oc6ccc(C#N)c(Cl)c6)CC5)nn4)CC3)cc1)=N[C@H](Cc1ncco1)c1nnc(C)n1-2 [I-241] | < 500 | 500 to 1500 | 500 to 1500 | 500 to 1500 |  |  |  |  |
| Cc1sc2c(c1C)C(c1ccc(NCC(=O)N3CCC(c4ccc(C(=O)N[C@H]5CC[C@H](Oc6ccc(C#N)c(Cl)c6)CC5)nn4)CC3)cc1)=N[C@H](Cc1ncco1)c1nnc(C)n1-2 [I-248] | < 500 | 500 to 1500 | < 500 | < 500 |  |  |  |  |
| Cc1sc2c(c1C)C(c1ccc(CC[C@@H]3CC[C@@]4(CCCN(c5ccc(C(=O)N[C@H]6CC[C@H](Oc7ccc(C#N)c(Cl)c7)CC6)nn5)C4)C3)cc1)=N[C@H](Cc1ncco1)c1nnc(C)n1-2 [I-216] | < 500 | < 500 | < 500 | < 500 |  |  |  |  |
| CCNC(=O)C[C@@H]1N=C(c2ccc(N(C)CC3CN(c4ccc(C(=O)N[C@H]5CC[C@H](Oc6ccc(C#N)c(Cl)c6)CC5)nn4)C3)cc2)c2c(sc(C)c2C)-n2c(C)nnc21 [I-30] | < 500 | 500 to 1500 | < 500 | 500 to 1500 |  |  |  |  |
| Cc1sc2c(c1C)C(c1ccc(CCC3CC4(CCCC(c5ccc(C(=O)N[C@H]6CC[C@H](Oc7ccc(C#N)c(Cl)c7)CC6)nn5)C4)C3)nc1)=N[C@@H](Cc1ncco1)c1nnc(C)n1-2 (some centres unmarked) [I-438] | < 500 | < 500 | < 500 | 500 to 1500 |  |  |  |  |
| Cc1sc2c(c1C)C(c1ccc(C3CC([C@@H]4CCCN(c5ccc(C(=O)N[C@H]6CC[C@H](Oc7ccc(C#N)c(Cl)c7)CC6)nn5)C4)C3)cc1)=N[C@@H](Cc1ncco1)c1nnc(C)n1-2 (some centres unmarked) [I-378] | < 500 | > 3000 | < 500 | 500 to 1500 |  |  |  |  |
| Cc1sc2c(c1C)C(c1ccc(C(C)(C)N3CC4(CCCN(c5ccc(C(=O)N[C@H]6CC[C@H](Oc7ccc(C#N)c(Cl)c7)CC6)nn5)C4)C3)cc1)=N[C@@H](Cc1ncco1)c1nnc(C)n1-2 [I-392] | < 500 | > 3000 | 500 to 1500 | > 3000 |  |  |  |  |
| Cc1sc2c(c1C)C(c1ccc(N3CC4(CCN(c5ccc(C(=O)NC6CCC(Oc7ccc(C#N)c(Cl)c7)CC6)nn5)CC4)C3)cc1)=N[C@@H](Cc1ncco1)c1nnc(C)n1-2 (stereo partly drawn) [I-132, N-[4-(3-chloro-4-cyano-phenoxy)cyclohexyl]-6-[2-[4-[(9S)-4,5,13-trimethyl-9-(oxazol-2-ylmethyl)-3-thia-1,8,11,12-tetrazatricyclo[8.3.0.02,6]trideca-2(6),4,7,10,12-pentaen-7-yl]phenyl]-2,7-diazaspiro[3.5]nonan-7-yl]pyridazine-3-carboxamide] | < 500 | < 500 | < 500 | < 500 |  |  |  |  |
| Cc1sc2c(c1C)C(c1ccc(CCC3CCC4CN(c5ccc(C(=O)N[C@H]6CC[C@H](Oc7ccc(C#N)c(Cl)c7)CC6)nn5)CCN4C3)cc1)=NC(Cc1ncco1)c1nnc(C)n1-2 (some centres unmarked) [I-403] |  |  |  |  | < 500 | < 500 | < 500 | < 500 |
| CC1=NN=C2C1c1sc(C)c(C)c1C(c1ccc(C#CC3CCN(c4ccc(C(=O)N[C@H]5CC[C@H](Oc6ccc(C#N)c(Cl)c6)CC5)nn4)CC3)cc1)=N[C@H]2Cc1ncco1 (some centres unmarked) [I-394] | < 500 | < 500 | < 500 | < 500 |  |  |  |  |
| Cc1sc2c(c1C)C(c1ccc(CC(=O)N3CCC(c4ccc(C(=O)N[C@H]5CC[C@H](Oc6ccc(C#N)c(Cl)c6)CC5)nn4)CC3)cc1)=N[C@H](Cc1ncco1)c1nnc(C)n1-2 [I-331] | > 3000 | > 3000 | < 500 | 1500 to 3000 |  |  |  |  |
| Cc1sc2c(c1C)C(c1ccc(OC3CC4(CCN(c5ccc(C(=O)N[C@H]6CC[C@H](Oc7ccc(C#N)c(Cl)c7)CC6)nn5)CC4)C3)nc1)=N[C@@H](C)c1nnc(C)n1-2 [I-433] | < 500 |  |  | 500 to 1500 |  | 500 to 1500 | > 3000 |  |
| Cc1sc2c(c1C)C(c1ccc(CC3CC4(CCN(c5ccc(C(=O)N[C@H]6CC[C@H](Oc7ccc(C#N)c(Cl)c7)CC6)nn5)CC4)C3)cc1)=N[C@@H](C)c1nnc(C)n1-2 [I-335] | < 500 | > 3000 | < 500 | < 500 |  |  |  |  |
| Cc1sc2c(c1C)C(c1ccc(N3CCC4(CC3)CCN(c3ccc(C(=O)N[C@H]5CC[C@H](Oc6ccc(C#N)c(Cl)c6)CC5)nn3)C4)cc1)=NCc1nnc(C)n1-2 [I-400] | < 500 | 500 to 1500 | 1500 to 3000 | > 3000 |  |  |  |  |
| Cc1sc2c(c1C)C(c1ccc(C#CC3CC4(C3)CN(c3ccc(C(=O)N[C@H]5CC[C@H](Oc6ccc(C#N)c(Cl)c6)CC5)nn3)C4)cn1)=N[C@H](Cc1ncco1)c1nnc(C)n1-2 [I-281] | < 500 | < 500 | < 500 | < 500 |  |  |  |  |
| Cc1sc2c(c1C)C(c1ccc(C(=O)N3CC[C@]4(CCCN(c5ccc(C(=O)N[C@H]6CC[C@H](Oc7ccc(C#N)c(Cl)c7)CC6)nn5)C4)C3)cc1)=N[C@H](Cc1ncco1)c1nnc(C)n1-2 [I-272] | < 500 | > 3000 | 1500 to 3000 | 1500 to 3000 |  |  |  |  |
| Cc1sc2c(c1C)C(c1ccc(N3CCC[C@H](C(=O)NCc4ccc(C(=O)N[C@H]5CC[C@H](Oc6ccc(C#N)c(Cl)c6)CC5)nn4)C3)cc1)=N[C@@H](Cc1ncco1)c1nnc(C)n1-2 [I-294] | < 500 | > 3000 | < 500 | < 500 |  |  |  |  |
| Cc1sc2c(c1C)C(c1ccc(O[C@@H]3CC[C@]4(CCCN(c5ccc(C(=O)N[C@H]6CC[C@H](Oc7ccc(C#N)c(Cl)c7)CC6)nn5)C4)C3)cc1)=N[C@@H](Cc1ncco1)c1nnc(C)n1-2 [I-98] | < 500 | < 500 | < 500 | < 500 |  |  |  |  |
| Cc1sc2c(c1C)C(c1ccc([C@H]3CC[C@@H](N4CCCN(c5ccc(C(=O)N[C@H]6CC[C@H](Oc7ccc(C#N)c(Cl)c7)CC6)nn5)CC4)CC3)cc1)=N[C@@H](Cc1ncco1)c1nnc(C)n1-2 [I-244] | < 500 | > 3000 | > 3000 | > 3000 |  |  |  |  |
| Cc1sc2c(c1C)C(c1ccc(N3CCC4(CC3)CC(Cc3ccc(C(=O)N[C@H]5CC[C@H](Oc6ccc(C#N)c(Cl)c6)CC5)nn3)C4)cc1)=NC(Cc1ncco1)c1nnc(C)n1-2 (some centres unmarked) [I-415] | < 500 |  | < 500 | 500 to 1500 |  | > 3000 |  |  |
